Literature values as cited in patent US9968649B2, “Vasopressin formulations for use in treatment of hypotension” (Par Pharmaceutical, Inc., priority 2015, dated 2018).

Tested on: healthy subjects
Conditions: cited from earlier work

## FC(F)(F)C(Cl)Br (stereo not shown) [Halothane]
In vivo
  impact on exposure to endogenous vasopressin: do not impact exposure

## COc1ccc2c(c1)c(CC(=O)O)c(C)n2C(=O)c1ccc(Cl)cc1 [Indomethacin]
co-administered with vasopressin, healthy subjects
  time to offset for vasopressin's effect on peripheral vascular resistance and cardiac output: more than doubles

## CC[N+](CC)(CC)CC [tetra-ethylammonium]
Healthy subjects
  increase of the pressor effect of vasopressin: 20%

## NS(=O)(=O)c1cc(C(=O)O)c(NCc2ccco2)cc1Cl [Furosemide]
co-administered with exogenous vasopressin, healthy subjects
  increase of urine flow: 9 fold
